Assay results published in US10526358B2, “Crystalline forms” (GRUNENTHAL GMBH, priority 2016, dated 2020).

Experiments:
[1] = FDA SBA; cited from earlier work
[2] = cited from earlier work
[3] = in vivo; cited from earlier work
[4] = apparent water solubility at room temperature; assay type: physicochemical
[5] = FDA SBA; cited from earlier work; remark: listed apart in the source

O=P(O)(O)C(O)(Cn1ccnc1)P(=O)(O)O [Zoledronic acid, (1-hydroxy-2-imidazol-1-yl-1-phosphono-ethyl)phosphonic acid]
oral bioavailability [1]: approximately 1%
solubility in 0.1 N HCl solution ([2]; 0.1 N HCl): sparingly soluble
solubility in 0.1 N NaOH ([2]; 0.1 N NaOH): freely soluble
solubility in various organic solvents ([2]; various organic solvents): practically insoluble
solubility in water ([2]; water): sparingly soluble
gastric and intestinal irritations [3]: severe gastric and intestinal irritations
apparent water solubility [4]: few
permeability in the GI tract [5]: poor permeability
